This is an account of results in US6703400B2, “Methods for treating multidrug resistance” (Schering Corporation, priority 2001, dated 2004).

Structures are written as SMILES. pIC50: −log10 of the molar value. Read-outs that look alike come from different tables or passages of the source.

The target of series [1] is MDR1 gene product transport enzyme (P-gp) in CR1R12 cell membranes (Cricetulus griseus, UniProt P21448). In words: P-gp-mediated ATP hydrolysis (phosphate release) assay with CR1R12 membrane microsomes. Type of series: biochemical, rodent. From the text:
ATP hydrolysis as nmol/min/mg is plotted against SCH66336 concentration.
The second Example monitored the consumption of ATP, a high-energy biological energy source required for transporter enzyme function. ATP is converted to two other chemicals—ADP and inorganic phosphate—during the P-gp mediated transport porcess.
The method was modified to be carried out in a 96-well microplate.
CR1R12 cell membranes enriched with the MDR1 gene product transport enzyme were used for preparation of membrane microsomes. Cells were washed with complete Hanks' buffer before being resuspended in 10 ml lysis buffer (Tris-25 HCl, 50 mM; mannitol, 50 mM; EGTA, 2 mM; and dithiothreitol, 2 mM; pH 7.0 at 25° C.) containing protease inhibitors (phenylmethylsulfonyl fluoride, 1 mM; aprotinin, 10 μg/ml; leupeptin, 10 μg/ml). All subsequent steps were performed at 4° C. The cells were lysed by nitrogen cavitation (Parr Instrument Co., Moline, Ill.) at 500 psi for 15 min twice. Nuclei and mitochondria were sedimented by centrifugation at 4000×g for 10 min. The microsomal membrane fraction was then sedimented by centrifugation at 100,000×g for 60 min. […] Aliquots of membrane microsomes were rapidly frozen and stored at −80 ° C. until analysis.
The microsomes were thawed on ice prior to diluting to 3.5 μg protein per well in ice-cold ATPase buffer (sodium ATP, 3 mM; KCl, 50 mM; MgSO4, 10 mM; dithiothreitol, 3 mM; Tris-HCl, 50 mM; pH 7.0) containing 0.5 mM EGTA (to inhibit Ca-ATPase), 0.5 mM ouabain (to inhibit the Na/K-ATPase), and 3 mM sodium azide (to inhibit the mitochondrial ATPase). The total incubation volume including the various inhibitors was 100 μl. The incubation reaction was initiated by transferring the plate from ice to 37° C. and incubating for 30 min; the reaction was terminated by the addition of 50 μl 12% SDS solution at room temperature, followed by the addition of 50 μl of a mixture solution of (equal volumes) 18% fresh ascorbic acid in 1N HCl and 3% ammonium molybdate in 1 N HCl. After 4 min, 100 μl of a solution of 2% sodium citrate and 2% sodium meta-arsenite in 2% acetic acid was added to fix the color formation. […] The respective values for background with ATPase assay buffer alone were obtained in parallel and subtracted from the values for experimental samples.

The next series concerns the target P-gp (human MDR1) (Homo sapiens, UniProt P08183). Kind of series: in vitro.
Series [2] deals with T1, gene product of human MDR1 (P-gp) in NIH 3T3 G185 cells (Homo sapiens, UniProt P08183). In words: cell-based.
Protocol: (§1) The efflux phase or incubation was 30 min in all cases. The average number of cells per assay was 10,000.
(§2) CR1R12 cell line, provided by Dr. Alan Senior (Univ. of Rochester), was maintained in complete α-minimum essential medium (α-MEM) supplemented with 10% FBS, penicillin/streptomycin (50 units/50 μg/ml) in a 5% CO2-95% air atmosphere at 37° C. Colchicine (0.5 μg/ml) was added to the culture medium. Cells were grown to 80-90% confluency and treated with trypsin-EDTA before subculturing. The NIH 3T3 G185 cell line presenting the gene product of human MDR1 was licensed from NIH and maintained in DMEM.
(§3) Fluorescence measurements of individual cells were performed using a Becton-Dickinson FACScalibur fluorescence-activated cell sorter (San Jose, Calif.), equipped with an ultraviolet argon laser (excitation at 488 nm, emission at 530/30 and 570/30 nm band-pass filters). Analysis was gated to include single cells on the basis of forward and side light-scatter and was based on acquisition of data from 10,000 cells. […] A direct functional assay for the P-gp efflux pump in CR1R12 cells was performed with the flow cytometer (Wang et al., 2000).
(§4) Cell viability was assessed using exclusion of 0.4% trypan blue as well as propidium iodide staining. Dead cells in which propidium iodide was bound to double strands of DNA or RNA were detected in certain regions of the cytometry dot plots and not included in the final data calculations.
(§5) The DNR fluorescence intensity of individual cells was recorded as histograms. The mean fluorescence intensity of 10,000 cells was used for comparison among different conditions. Vanadate was selected as a positive control to normalize the measurements because it can maximally inactivate the P-gp efflux pump. Relative fluorescence was used for quantitation and comparison among different compounds. The relative fluorescence (% inactivation) represents a ratio obtained through the following formula: the geometric mean fluorescence of a discrete sample divided by the geometric mean fluorescence in the presence of 5 mM vanadate, times 100, or expressed as [formula]
In series [3] the target is T1, gene product of human MDR1 (P-gp) in NIH 3T3 G185 cells. Conditions: IC50 G185 vs IC50 CR1R12.
Protocol: as §1, §2, §3, §4, §5
Series [4] has as its target T2, P-gp efflux pump in CR1R12 cells (Cricetulus griseus, UniProt P21448). In words: cell-based.
Protocol: (§6) The efflux phase or incubation was 30 min in all cases. The average number of cells per assay was 10,000. The function for the line through the data is the Hill equation: v=VmaxSn/(K′+Sn). The parameters IC50 and the Hill coefficient along with the standard deviation are shown on the respective graphs.
(§7) CR1R12 cell line, provided by Dr. Alan Senior (Univ. of Rochester), was maintained in complete α-minimum essential medium (α-MEM) supplemented with 10% FBS, penicillin/streptomycin (50 units/50 μg/ml) in a 5% CO2-95% air atmosphere at 37° C. Colchicine (0.5 μg/ml) was added to the culture medium. Cells were grown to 80-90% confluency and treated with trypsin-EDTA before subculturing.
(§8) Fluorescence measurements of individual cells were performed using a Becton-Dickinson FACScalibur fluorescence-activated cell sorter (San Jose, Calif.), equipped with an ultraviolet argon laser (excitation at 488 nm, emission at 530/30 and 570/30 nm band-pass filters). […]
as §4
(§9) The DNR fluorescence intensity of individual cells was recorded as histograms. […]
Another series has as its target P-gp (Cricetulus griseus, UniProt P21448). In words: Retention of rhodamine 123 (Rho), fluorescent P-gp substrate, in cells.
Series [5] deals with T2, P-gp efflux pump in CR1R12 cells. Conditions: compared with verapamil.
Protocol: as §6, §7, §8, §4, §9

Sequence of MDR1 gene product transport enzyme (P-gp) in CR1R12 cell membranes (P21448 whole entry): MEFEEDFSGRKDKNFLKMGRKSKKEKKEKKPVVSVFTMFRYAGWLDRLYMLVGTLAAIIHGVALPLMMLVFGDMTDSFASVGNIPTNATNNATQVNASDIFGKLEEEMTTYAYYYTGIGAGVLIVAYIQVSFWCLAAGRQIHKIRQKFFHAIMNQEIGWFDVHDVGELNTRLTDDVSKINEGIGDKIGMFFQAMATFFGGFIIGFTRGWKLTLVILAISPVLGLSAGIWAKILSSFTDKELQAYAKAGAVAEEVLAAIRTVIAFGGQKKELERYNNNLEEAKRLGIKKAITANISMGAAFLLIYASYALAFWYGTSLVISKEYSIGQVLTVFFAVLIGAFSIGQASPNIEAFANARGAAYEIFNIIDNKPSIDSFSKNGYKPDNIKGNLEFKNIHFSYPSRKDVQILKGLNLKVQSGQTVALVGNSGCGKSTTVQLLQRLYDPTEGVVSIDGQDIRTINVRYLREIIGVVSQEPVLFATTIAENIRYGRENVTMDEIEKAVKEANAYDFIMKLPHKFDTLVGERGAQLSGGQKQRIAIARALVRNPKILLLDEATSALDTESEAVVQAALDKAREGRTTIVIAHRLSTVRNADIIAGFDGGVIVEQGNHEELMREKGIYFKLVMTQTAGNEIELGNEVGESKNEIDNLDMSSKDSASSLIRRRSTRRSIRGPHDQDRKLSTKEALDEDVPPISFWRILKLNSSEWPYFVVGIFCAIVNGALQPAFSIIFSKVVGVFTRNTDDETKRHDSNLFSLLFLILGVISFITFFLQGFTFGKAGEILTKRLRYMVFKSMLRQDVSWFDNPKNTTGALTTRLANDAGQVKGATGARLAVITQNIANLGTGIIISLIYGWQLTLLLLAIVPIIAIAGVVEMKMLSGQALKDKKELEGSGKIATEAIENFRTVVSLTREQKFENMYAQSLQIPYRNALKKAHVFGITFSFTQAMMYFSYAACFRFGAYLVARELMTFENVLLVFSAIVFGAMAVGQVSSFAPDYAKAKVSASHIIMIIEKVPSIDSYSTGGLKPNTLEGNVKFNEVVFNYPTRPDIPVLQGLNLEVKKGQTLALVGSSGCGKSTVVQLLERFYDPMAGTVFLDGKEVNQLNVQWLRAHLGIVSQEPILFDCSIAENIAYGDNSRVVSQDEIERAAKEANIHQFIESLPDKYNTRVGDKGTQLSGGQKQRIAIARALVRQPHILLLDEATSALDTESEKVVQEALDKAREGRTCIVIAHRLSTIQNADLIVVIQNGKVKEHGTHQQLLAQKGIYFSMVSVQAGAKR
T1 sequence (P08183 whole entry): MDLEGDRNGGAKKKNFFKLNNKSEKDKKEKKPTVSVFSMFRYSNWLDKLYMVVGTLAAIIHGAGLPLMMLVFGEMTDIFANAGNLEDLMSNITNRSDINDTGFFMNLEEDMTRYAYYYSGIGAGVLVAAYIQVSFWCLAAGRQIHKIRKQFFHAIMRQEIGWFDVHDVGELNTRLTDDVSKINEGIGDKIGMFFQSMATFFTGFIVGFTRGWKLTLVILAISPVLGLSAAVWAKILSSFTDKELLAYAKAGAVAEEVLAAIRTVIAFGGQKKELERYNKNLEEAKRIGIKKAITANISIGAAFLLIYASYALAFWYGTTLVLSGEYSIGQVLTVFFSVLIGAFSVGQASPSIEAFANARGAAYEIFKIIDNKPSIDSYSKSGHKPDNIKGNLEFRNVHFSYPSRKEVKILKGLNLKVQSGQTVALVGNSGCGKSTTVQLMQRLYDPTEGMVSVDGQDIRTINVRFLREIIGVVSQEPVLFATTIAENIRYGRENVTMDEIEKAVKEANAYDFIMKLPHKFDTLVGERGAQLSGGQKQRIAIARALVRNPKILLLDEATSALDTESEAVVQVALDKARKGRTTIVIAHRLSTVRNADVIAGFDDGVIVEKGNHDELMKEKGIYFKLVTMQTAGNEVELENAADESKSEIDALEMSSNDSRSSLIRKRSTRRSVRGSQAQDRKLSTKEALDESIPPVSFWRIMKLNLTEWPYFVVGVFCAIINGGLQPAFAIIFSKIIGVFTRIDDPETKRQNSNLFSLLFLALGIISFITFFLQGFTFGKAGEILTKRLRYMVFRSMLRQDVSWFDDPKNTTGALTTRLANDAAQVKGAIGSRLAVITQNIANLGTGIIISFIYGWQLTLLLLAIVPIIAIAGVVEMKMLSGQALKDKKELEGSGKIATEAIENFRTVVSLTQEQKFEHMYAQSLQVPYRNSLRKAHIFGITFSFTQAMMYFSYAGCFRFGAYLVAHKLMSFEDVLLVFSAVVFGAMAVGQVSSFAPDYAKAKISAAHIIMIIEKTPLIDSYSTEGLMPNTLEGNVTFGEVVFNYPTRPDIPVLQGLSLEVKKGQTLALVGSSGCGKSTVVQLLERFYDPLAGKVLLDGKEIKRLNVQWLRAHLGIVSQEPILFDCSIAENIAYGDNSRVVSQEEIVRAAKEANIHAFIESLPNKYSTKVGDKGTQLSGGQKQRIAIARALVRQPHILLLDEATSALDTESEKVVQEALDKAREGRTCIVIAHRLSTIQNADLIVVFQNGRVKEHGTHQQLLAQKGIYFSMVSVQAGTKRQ
T2 sequence (P21448 whole entry): as the sequence (P21448 whole entry) above
Sequence of P-gp (human MDR1) (P08183 whole entry): as the sequence (P08183 whole entry) above
Protocol for P-gp (human MDR1): as §1, §2, §3, §4, §5

For `COc1cccc2c1C(=O)c1c(O)c3c(c(O)c1C2=O)C[C@@](O)(C(C)=O)C[C@@H]3O[C@H]1C[C@H](N)[C@H](O)[C@H](C)O1` [Daunorubicin, reference compound], the Vmax % control in series [1] (ATP hydrolysis, Table 1) turned out to be 170 % control.
Still for that read-out and setting: the figure for `CC(=O)[C@H]1CC[C@H]2[C@@H]3CCC4=CC(=O)CC[C@]4(C)[C@H]3CC[C@]12C` [Progesterone, reference compound] is 236 % control.
Turning to `C=C[C@H]1C[N@@]2CC[C@H]1C[C@@H]2[C@@H](O)c1ccnc2ccc(OC)cc12` [Quinidine, quinidine, reference compound], the Vmax % control in series [1] is reported as 239 % control.
A word on the IC50: it is the concentration that inhibits the measured activity by half. A low value points to higher potency. One may read the pIC50 as −log10 of the IC50, conventionally taken in molar units. A higher pIC50 goes with a small IC50. On P-gp (human MDR1), `NC(=O)N1CCC(CC(=O)N2CCC(C3c4ncc(Br)cc4CCc4cc(Cl)cc(Br)c43)CC2)CC1` (stereo not drawn) [SCH66336] displayed an IC50 at 30 min of less than 3 µM. Moreover, the “effect on rate of ATP hydrolysis relative to baseline rate” value in series [1] was “concentration-dependent decrease”. The Vmax in series [1] (ATP hydrolysis, Example B results text) is roughly 28 % baseline; in series [1] (ATP hydrolysis, FIG. 2 legend), 28 % of control. Also, the pIC50 was roughly 5.52 in series [2], roughly 5.05 in series [4] and roughly 4.96 against P-gp. Besides, the “potency in G185 cells relative to CR1R12 cell line” value in series [3] was “three times as potent”. For the same compound, in series [5], the “extent of inhibition of DNR transport” value is “exceeding that of verapamil”.
